According to paper PMC5762315, “Inhibition of polo-like kinase 4 (PLK4): a new therapeutic option for rhabdoid tumors and pediatric medulloblastoma” (Oncotarget, 2017):
“And” between values parts separate entries of the source, which are not always exact repeats. Equal values may be shown once.

Experiments:
[1] = system: DAOY cells; assay: Colony formation assay, DAOY; format: cell-based, human; conditions: 50nM
Experimental: For proliferation assay DAOY was plated with 5 x 10^4 cells per well and D283 was plated with 5 x 10^5 cells per well.

[2] = molecular target: various kinases (Homo sapiens, UniProt P27037); assay: LanthaScreen Eu Kinase Binding Assay, panel of 486 biochemical kinase assays; conditions: ACVR2A
[3] = molecular target: various kinases (Homo sapiens, UniProt Q9UF33); assay: as above; conditions: EPHA6
[4] = molecular target: various kinases (Homo sapiens, UniProt P19525); assay: as above; conditions: EIF2AK2 (PKR)
[5] = molecular target: T1, various kinases (Homo sapiens, UniProt Q9UKI8); assay: as above; conditions: kinase TLK1; LanthaScreen Binding
T1 sequence (Q9UKI8 1-766): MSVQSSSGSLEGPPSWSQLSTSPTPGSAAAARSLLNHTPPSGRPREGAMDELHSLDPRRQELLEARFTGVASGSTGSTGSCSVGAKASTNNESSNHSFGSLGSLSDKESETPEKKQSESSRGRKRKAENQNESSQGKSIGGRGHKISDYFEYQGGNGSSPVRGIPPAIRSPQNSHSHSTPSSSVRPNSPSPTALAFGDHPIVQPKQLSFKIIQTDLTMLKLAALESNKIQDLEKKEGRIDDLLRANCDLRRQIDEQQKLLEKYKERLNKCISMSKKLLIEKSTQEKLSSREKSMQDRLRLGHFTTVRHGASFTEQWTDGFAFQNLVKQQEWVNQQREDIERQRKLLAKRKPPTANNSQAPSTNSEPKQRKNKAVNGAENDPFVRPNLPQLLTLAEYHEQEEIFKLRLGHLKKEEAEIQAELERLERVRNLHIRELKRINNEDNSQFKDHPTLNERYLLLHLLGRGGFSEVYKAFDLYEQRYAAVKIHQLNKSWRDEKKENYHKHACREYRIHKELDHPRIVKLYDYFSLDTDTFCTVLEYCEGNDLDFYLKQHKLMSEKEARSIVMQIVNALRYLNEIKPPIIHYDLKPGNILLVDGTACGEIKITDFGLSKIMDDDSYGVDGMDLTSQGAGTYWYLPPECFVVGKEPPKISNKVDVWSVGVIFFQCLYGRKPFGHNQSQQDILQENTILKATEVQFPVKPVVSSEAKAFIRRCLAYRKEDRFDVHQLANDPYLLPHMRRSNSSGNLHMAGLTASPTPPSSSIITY

[6] = molecular target: various kinases (Homo sapiens, UniProt Q15569); assay: as above; conditions: kinase TESK1; LanthaScreen Binding
[7] = molecular target: various kinases (Homo sapiens, UniProt P30291); assay: as above; conditions: kinase WEE1; LanthaScreen Binding
[8] = molecular target: various kinases (Homo sapiens, UniProt P37023); assay: as above; conditions: ACVRL1 (ALK1)
[9] = molecular target: various kinases (Homo sapiens, UniProt O75460); assay: as above; conditions: ERN1
[10] = molecular target: various kinases (Homo sapiens, UniProt O00311); assay: as above; conditions: CDC7/DBF4
[11] = molecular target: various kinases (Homo sapiens, UniProt P36894); assay: as above; conditions: BMPR1A (ALK3)
[12] = molecular target: various kinases (Homo sapiens, UniProt P10721, D816V); assay: as above; conditions: KIT D816V
[13] = molecular target: various kinases (Homo sapiens, UniProt Q5S007); assay: Adapta Universal Kinase Assay, panel of 486 biochemical kinase assays; design: % Inhibition Average: concentration or dose not given beside the values
[14] = molecular target: various kinases (Homo sapiens, UniProt P51617); assay: as above; design: % Inhibition Average: concentration or dose not given beside the values; conditions: IRAK1
[15] = molecular target: various kinases (Homo sapiens, UniProt P42338); assay: as above; design: % Inhibition Average: concentration or dose not given beside the values
[16] = molecular target: various kinases (Homo sapiens, UniProt O14986); assay: as above; design: % Inhibition Average: concentration or dose not given beside the values; conditions: kinase PIP5K1B; Adapta
[17] = molecular target: various kinases (Homo sapiens, UniProt O00329); assay: as above; design: % Inhibition Average: concentration or dose not given beside the values; conditions: PIK3CD/PIK3R1 (p110 delta/p85 alpha)
[18] = molecular target: T2, various kinases (Homo sapiens, UniProt Q9NRA0); assay: as above; design: % Inhibition Average: concentration or dose not given beside the values; conditions: kinase SPHK2; Adapta
T2 sequence (Q9NRA0 1-654): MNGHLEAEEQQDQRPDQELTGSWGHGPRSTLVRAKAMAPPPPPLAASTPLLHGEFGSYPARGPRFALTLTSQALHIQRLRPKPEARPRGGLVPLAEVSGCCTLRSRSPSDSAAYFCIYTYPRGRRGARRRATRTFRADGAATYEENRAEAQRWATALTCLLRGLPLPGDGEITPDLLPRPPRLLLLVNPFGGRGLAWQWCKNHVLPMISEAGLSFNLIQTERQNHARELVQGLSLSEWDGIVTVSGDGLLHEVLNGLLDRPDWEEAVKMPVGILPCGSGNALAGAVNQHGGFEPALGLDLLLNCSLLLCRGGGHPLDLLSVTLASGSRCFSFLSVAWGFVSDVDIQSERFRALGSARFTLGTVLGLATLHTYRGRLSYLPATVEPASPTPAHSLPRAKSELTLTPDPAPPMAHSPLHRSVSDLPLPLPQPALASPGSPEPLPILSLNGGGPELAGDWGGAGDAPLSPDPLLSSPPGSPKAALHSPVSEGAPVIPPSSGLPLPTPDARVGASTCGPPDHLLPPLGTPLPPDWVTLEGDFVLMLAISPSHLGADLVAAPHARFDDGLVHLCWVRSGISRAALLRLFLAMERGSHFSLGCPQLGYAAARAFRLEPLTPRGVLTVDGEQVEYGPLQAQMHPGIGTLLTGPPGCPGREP

[19] = molecular target: ROS1 (Homo sapiens, UniProt P08922); assay: Kinase activity screening (SelectScreen), ROS1; format: biochemical; conditions: ZLYTE

Sequence of various kinases (Homo sapiens, UniProt P30291) (P30291 whole entry): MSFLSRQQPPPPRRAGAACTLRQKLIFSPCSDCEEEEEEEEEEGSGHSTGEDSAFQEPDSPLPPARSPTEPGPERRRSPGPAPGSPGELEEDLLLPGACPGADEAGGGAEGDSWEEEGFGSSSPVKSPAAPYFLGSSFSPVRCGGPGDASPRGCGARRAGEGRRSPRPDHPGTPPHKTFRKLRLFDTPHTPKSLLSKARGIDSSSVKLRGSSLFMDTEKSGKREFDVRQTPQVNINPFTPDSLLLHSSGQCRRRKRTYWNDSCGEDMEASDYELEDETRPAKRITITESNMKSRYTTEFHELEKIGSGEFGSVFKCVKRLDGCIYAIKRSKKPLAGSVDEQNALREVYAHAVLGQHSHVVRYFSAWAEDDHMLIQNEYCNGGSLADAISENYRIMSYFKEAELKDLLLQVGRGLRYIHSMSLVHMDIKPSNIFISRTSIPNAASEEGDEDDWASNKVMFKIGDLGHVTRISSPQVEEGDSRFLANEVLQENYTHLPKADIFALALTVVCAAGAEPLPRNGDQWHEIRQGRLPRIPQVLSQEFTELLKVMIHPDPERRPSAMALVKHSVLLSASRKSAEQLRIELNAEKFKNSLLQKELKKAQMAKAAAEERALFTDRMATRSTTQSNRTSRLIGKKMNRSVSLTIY
Sequence of various kinases (Homo sapiens, UniProt O14986) (O14986 whole entry): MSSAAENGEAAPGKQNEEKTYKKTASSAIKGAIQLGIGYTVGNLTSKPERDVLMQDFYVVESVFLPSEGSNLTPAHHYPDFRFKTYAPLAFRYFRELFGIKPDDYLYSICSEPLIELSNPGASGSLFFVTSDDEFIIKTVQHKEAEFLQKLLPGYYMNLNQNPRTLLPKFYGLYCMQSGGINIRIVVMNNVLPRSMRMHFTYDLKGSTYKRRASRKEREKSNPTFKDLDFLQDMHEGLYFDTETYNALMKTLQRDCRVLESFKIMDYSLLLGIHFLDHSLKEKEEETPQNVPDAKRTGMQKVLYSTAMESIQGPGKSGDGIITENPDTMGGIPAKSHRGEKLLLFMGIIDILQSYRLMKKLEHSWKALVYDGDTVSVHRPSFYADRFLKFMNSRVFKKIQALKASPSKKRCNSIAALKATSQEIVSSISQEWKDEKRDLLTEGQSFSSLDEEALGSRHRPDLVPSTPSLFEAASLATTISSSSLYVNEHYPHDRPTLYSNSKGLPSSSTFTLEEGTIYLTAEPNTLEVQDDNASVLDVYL
Sequence of various kinases (Homo sapiens, UniProt Q5S007) (Q5S007 whole entry): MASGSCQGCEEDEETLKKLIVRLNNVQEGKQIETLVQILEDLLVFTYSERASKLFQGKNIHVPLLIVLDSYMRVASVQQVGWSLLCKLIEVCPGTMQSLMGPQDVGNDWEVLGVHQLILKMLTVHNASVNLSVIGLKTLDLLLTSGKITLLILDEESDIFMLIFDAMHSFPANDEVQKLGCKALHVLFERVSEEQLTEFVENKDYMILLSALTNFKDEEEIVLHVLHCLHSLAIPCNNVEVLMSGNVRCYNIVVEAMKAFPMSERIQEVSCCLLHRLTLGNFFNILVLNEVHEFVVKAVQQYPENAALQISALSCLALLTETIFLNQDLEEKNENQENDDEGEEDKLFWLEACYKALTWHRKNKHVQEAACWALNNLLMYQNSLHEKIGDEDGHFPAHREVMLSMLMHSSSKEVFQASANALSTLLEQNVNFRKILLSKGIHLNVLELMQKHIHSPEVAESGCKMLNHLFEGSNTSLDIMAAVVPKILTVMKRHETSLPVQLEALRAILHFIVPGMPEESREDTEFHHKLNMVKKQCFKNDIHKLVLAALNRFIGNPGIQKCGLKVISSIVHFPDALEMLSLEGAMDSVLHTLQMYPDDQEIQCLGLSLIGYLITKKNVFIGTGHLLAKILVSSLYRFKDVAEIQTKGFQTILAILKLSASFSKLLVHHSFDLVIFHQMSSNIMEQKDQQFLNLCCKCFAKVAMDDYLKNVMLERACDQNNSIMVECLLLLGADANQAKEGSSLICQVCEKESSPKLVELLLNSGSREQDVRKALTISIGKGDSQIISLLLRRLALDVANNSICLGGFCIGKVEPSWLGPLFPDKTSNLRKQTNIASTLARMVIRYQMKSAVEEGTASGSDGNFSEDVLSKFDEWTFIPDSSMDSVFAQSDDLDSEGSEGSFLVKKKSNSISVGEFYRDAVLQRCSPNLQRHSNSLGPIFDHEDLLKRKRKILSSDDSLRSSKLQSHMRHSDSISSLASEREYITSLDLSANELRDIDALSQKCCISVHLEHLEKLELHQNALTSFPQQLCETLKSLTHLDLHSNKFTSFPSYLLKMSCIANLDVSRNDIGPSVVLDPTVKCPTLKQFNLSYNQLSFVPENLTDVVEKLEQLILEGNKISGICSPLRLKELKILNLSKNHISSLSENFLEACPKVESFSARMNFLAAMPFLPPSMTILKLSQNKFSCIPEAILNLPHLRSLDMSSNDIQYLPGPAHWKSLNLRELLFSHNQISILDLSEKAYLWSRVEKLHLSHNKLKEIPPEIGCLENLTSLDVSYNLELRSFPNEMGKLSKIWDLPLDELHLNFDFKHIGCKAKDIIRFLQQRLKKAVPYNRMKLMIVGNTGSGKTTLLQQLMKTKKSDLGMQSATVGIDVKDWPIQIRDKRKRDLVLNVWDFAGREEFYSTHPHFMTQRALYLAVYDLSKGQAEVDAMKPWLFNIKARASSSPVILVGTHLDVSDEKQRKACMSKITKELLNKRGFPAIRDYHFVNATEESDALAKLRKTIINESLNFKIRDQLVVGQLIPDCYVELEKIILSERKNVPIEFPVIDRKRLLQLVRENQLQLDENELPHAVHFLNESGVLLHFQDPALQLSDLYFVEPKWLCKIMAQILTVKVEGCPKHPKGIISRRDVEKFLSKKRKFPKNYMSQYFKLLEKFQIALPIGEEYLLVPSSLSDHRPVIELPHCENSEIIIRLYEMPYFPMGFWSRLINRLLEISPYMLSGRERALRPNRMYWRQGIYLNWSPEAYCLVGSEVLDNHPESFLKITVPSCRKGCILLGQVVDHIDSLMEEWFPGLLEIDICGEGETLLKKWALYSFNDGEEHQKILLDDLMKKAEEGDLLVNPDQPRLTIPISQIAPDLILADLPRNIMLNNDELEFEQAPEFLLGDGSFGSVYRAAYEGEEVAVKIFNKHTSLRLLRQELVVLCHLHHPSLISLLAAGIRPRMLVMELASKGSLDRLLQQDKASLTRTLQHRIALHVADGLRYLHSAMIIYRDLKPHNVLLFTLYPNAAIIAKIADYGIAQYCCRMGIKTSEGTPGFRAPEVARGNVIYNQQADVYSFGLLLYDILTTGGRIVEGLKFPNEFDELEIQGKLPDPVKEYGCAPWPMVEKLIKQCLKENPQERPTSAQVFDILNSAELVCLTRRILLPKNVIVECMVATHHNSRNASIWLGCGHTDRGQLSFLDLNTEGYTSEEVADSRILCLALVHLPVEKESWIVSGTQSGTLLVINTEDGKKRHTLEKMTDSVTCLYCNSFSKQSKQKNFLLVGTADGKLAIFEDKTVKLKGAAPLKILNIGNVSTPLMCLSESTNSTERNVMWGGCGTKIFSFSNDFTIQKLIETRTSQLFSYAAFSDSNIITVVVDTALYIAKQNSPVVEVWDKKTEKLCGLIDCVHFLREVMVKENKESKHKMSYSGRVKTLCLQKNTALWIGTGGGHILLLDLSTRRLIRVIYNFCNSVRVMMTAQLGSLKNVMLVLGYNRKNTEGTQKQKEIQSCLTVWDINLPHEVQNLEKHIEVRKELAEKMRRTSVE
Sequence of various kinases (Homo sapiens, UniProt P42338) (P42338 whole entry): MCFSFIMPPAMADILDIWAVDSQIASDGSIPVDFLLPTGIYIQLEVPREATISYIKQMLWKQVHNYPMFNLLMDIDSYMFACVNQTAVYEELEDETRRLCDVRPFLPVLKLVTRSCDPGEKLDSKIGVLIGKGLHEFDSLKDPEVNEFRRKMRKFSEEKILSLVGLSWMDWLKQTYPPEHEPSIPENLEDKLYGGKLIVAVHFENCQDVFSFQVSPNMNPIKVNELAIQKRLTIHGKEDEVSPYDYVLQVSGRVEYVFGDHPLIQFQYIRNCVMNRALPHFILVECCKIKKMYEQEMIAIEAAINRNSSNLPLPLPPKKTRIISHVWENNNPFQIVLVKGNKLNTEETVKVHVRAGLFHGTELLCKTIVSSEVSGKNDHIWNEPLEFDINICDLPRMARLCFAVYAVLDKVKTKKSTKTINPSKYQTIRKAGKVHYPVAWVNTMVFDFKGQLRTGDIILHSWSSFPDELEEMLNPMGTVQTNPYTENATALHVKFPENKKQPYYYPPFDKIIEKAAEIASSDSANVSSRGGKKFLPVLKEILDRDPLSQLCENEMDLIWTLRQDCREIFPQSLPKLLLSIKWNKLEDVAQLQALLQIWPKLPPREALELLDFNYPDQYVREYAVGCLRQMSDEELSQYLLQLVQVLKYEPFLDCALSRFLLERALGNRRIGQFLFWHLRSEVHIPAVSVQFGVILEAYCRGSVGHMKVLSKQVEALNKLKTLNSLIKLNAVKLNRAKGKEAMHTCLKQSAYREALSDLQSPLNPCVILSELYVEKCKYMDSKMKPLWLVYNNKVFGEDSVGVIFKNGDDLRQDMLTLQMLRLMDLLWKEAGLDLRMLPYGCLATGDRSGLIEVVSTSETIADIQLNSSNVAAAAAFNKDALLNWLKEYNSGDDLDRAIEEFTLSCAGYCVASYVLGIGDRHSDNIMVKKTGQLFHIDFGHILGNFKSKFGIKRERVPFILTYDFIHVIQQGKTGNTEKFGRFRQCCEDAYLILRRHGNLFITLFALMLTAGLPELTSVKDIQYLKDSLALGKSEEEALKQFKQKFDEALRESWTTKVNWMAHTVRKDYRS

## COc1ccc2c(c1)[C@]1(C[C@H]1c1ccc3c(/C=C/c4ccc(CN5C[C@@H](C)O[C@@H](C)C5)cc4)n[nH]c3c1)C(=O)N2 [CFI-400945]
[1]
  colony formation: Complete inhibition
[2]
  % Inhibition: 18% and 15%
[3]
  % Inhibition: 18% and 24%
[4]
  % Inhibition: 3% and -4%
[5]
  % Inhibition Average: 0%
  % Inhibition Duplicate #1: -1%
  % Inhibition Duplicate #2: 0%
[6]
  % Inhibition Average: 12%
  % Inhibition Duplicate #1: 13%
  % Inhibition Duplicate #2: 11%
[7]
  % Inhibition Average: -5%
  % Inhibition Duplicate #1: -7%
  % Inhibition Duplicate #2: -2%
[8]
  % Inhibition: 10% and 0%
[9]
  % Inhibition: 3% and 7%
[10]
  % Inhibition: 13% and 16%
[11]
  % Inhibition: -4% and 3%
[12]
  % Inhibition: -1% and 0%
[13]; LRRK2
  % Inhibition: 34% and 26%
[13]; LRRK2 FL
  % Inhibition: 43% and 42%
[14]
  % Inhibition: -8% and -12%
[15]; PIK3CB/PIK3R1 (p110 beta/p85 alpha)
  % Inhibition: 4% and 3%
[15]; PIK3CB/PIK3R2 (p110 beta/p85 beta)
  % Inhibition: 12% and 6%
[16]
  % Inhibition Average: -1%
  % Inhibition Duplicate #1: 2%
  % Inhibition Duplicate #2: -3%
[17]
  % Inhibition: -2% and -8%
[18]
  % Inhibition Average: -20%
  % Inhibition Duplicate #1: -15%
  % Inhibition Duplicate #2: -24%
[19]
  % Inhibition Duplicate #1: 99%
